Source: article PMC3160846 (PLoS ONE, 2011)

Tests used:
ALK = target: T1, ALK (Homo sapiens, UniProt Q9UM73); test: Kinase inhibition assay, ALK; format: biochemical
T1 construct: His-tagged ALK (residues V1058-P1620) containing kinase domain; His; made in house; host or cells: Sf9 insect cells
Method: ALK – The recombinant His-tagged ALK (residues V1058-P1620) containing kinase domain was expressed in Sf9 insect cells. The kinase assay was carried out in 96-well plates with the tested compound at 30°C for 120 min.
(§1) Composition of the reaction buffers used in different kinase inhibitory assays is described in Figure S3.
25 mM HEPES pH 7.4, 10 mM MgCl2, 4 mM MnCl2, 0.5 mM Na3VO4, 2 mM DTT, 0.02% Triton X100, 0.01% BSA, 1 μM ATP, 2 μM polyGlu4:Tyr peptide, 50~100 ng recombinant ALK.

CHK1 = target: T2, CHK1 (Homo sapiens, UniProt O14757); test: Kinase inhibition assay, CHK1; format: biochemical
T2 construct: His-tagged CHK1 (residues M1-T476); His; made in house; host or cells: Sf9 insect cells
T2 sequence (O14757 whole entry, the tested form may be a part): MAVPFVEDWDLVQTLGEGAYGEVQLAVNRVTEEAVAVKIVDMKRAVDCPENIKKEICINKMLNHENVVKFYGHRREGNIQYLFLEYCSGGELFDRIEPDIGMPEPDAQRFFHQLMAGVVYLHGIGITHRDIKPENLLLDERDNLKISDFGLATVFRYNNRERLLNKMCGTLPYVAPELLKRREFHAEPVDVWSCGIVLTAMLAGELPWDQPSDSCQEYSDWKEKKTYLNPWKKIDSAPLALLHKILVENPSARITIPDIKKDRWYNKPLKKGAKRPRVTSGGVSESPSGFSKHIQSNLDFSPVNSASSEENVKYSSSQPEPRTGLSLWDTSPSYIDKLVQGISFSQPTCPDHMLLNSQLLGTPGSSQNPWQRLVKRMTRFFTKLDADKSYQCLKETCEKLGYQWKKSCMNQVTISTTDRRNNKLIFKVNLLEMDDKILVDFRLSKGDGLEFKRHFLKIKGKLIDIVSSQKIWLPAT
Method: CHK1/2 – The recombinant His-tagged CHK1 (residues M1-T476) or CHK2 (residues M1-L543) containing kinase domain were expressed in Sf9 insect cells. The kinase assay was carried out in 96-well plates with the tested compound at 30°C for 120 min.
as §1
25 mM HEPES pH 7.4, 10mM MgCl2, 4mM MnCl2, 0.5mM Na3VO4, 2 mM DTT, 0.02% Triton X100, 0.01% BSA, 1 mM ATP, 2 mM CHK peptide ([…]), 50~500 ng recombinant CHK1 or CHK2.

cMET = target: T3, cMET (Homo sapiens, UniProt P08581); test: Kinase inhibition assay, cMET; format: biochemical
T3 construct: GST-tagged c-Met (residues K956-S1390) containing kinase domain; GST; made in house; host or cells: Sf9 insect cells
T3 sequence (P08581 956-1390): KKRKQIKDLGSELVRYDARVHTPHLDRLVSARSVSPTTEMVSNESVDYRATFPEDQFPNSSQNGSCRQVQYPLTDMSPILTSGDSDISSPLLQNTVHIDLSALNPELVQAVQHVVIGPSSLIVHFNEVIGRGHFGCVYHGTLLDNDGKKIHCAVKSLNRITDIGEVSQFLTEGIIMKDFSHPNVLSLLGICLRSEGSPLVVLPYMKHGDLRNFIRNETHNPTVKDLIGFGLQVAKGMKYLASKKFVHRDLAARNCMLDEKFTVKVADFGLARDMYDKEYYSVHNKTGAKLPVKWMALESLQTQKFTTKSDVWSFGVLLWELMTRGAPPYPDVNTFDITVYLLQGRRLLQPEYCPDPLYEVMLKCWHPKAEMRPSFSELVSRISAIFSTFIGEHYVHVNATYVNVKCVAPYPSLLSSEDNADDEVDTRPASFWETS
Method: c-Met – The recombinant GST-tagged c-Met (residues K956-S1390) containing kinase domain was expressed in Sf9 insect cells. The kinase assay was carried out in 96-well plates with the tested compound at 30°C for 120 min.
as §1
25 mM HEPES pH 7.4, 10mM MgCl2, 4 mM MnCl2, 0.5mM Na3VO4, 2 mM DTT, 0.02% Triton X100, 0.01% BSA, 1 mM ATP, 2 mM polyGlu4:Tyr peptide, 75 ng recombinant Met.

A549 cells = test: Clonogenic assay, A549; format: cell-based, Human; settings: Homo sapiens; A549, lung, p53 wild-type, MDR1 negative; read-out: IC50, anti-proliferative activity
Method: (§2) Human lung adenocarcinoma A549 cells and NTUB1 bladder cancer cells were maintained in RPMI supplied with 10% fetal bovine serum. […] KB-derived MRP1-expressing cell line, KB-7D, was maintained in growth medium supplemented with 7 µM VP-16.
(§3) Two hundred cells in logarithmic growth phase were seeded in a 6-well plate. The cells were exposed to various concentrations of the test drugs for a three-generation period. At the end of the incubation period, cells were fixed and stained with 50% ethanol containing 0.5% methylene blue for 30 min. The plates were washed five times with water and allowed to air-dry. Colonies were countered manually. […] Each value represents the average of at least three independent experiments run in triplicates.

KB-S15 cells = test: Clonogenic assay, KB-S15; format: cell-based, Human
Method: as §2, §3

HONE-1 cells = test: Western blot of Histone H3 phosphorylation and cyclin B1, HONE-1; format: cell-based, Human; settings: HONE-1, 48 h
Method: Cells were lysed with ice-cold lysis buffer (10 mM Tris, 1 mM EDTA, 1 mM DTT, 60 mM KCl, 0.5% NP-40 and protease inhibitors). […] The resolved proteins were electrophoretically transferred to PVDF membranes (Amersham Life Science, Amersham, U.K.) for Western blot analysis. The membranes were blocked with 5% non-fat milk at room temperature for two hours, washed twice with TBST (1% Tween) and then incubated with either anti-phosphorylated Aurora-A/-B/-C kinase antibody (#2914S, Cell Signaling Technology, Danvers, MA), anti-Aurora-A and -B kinase antibody (#ab1287 and #ab2254, Abcam, Cambridge, MA), anti-phosphorylated Histone H3 antibody (#9701, Cell Signaling Technology, Danvers, MA), anti-Histone H3 antibody (#9715, Cell Signaling Technology, Danvers, MA), anti-Cyclin B1 antibody or anti-Actin antibody (#sc-245 and #sc-130065, Santa Cruz Biotechnology, Santa Cruz, CA) overnight at 4°C. Membranes were washed twice with TBST then subsequently incubated with a horseradish peroxidase-conjugated secondary antibody (Santa Cruz Biotechnology, Santa Cruz, CA) for 1 hour at room temperature. Immunoreactivity was detected by Enhanced Chemiluminescence (Amersham International, Buckingham, U.K.) and autoradiography. Experiments were repeated independently at least two times.

KB cells = test: Apoptosis assays (Annexin-V, caspase-3/-7 imaging, TUNEL), KB; format: cell-based, Human; settings: 48-72 h
Method: Cells were cultured in chamber-slides, incubated with test agents for 48 h, and washed twice with PBS. Cells were labeled with Annexin-V-FLUOS reagent (catalog number #11858777001, Roche, Indianapolis, IN) for 30 min at room temperature. The cells were analyzed by fluorescence microscopy.
Caspase-3/-7 activity was analyzed with the MagicRed™ DEVD real-time caspase activity detection kit (catalog number #935, Immunochemistry Technologies LLC, Bloomington, MN). Briefly, cells were cultured in chamber-slides and incubated with test agents for various durations. Cells were then incubated with the Caspase-3/-7 substrate MR-(DEVD2) in culture medium for 1 hour, and then co-incubated with Hoechst 33342 for 15 min. Cells were viewed with a UV-enabled inverted-microscope at an excitation wavelength of 540 nm–560 nm and emission at 610 nm. Experiments were repeated independently at least two times.
Under in vitro conditions, cells were seeded and cultured in 8-well chamber-slides, and treated with various compounds. […] Cells were counterstained with DAPI to detect the nucleus, and examined by fluorescence microscopy. Amount of red fluorescence labeled (DNA fragmented) cells were counted and percentage of apoptotic cells were calculated as follows: Amount of the red fluorescence labeled cells ÷ Total cells available×100. […]

T1 sequence (Q9UM73 1058-1620): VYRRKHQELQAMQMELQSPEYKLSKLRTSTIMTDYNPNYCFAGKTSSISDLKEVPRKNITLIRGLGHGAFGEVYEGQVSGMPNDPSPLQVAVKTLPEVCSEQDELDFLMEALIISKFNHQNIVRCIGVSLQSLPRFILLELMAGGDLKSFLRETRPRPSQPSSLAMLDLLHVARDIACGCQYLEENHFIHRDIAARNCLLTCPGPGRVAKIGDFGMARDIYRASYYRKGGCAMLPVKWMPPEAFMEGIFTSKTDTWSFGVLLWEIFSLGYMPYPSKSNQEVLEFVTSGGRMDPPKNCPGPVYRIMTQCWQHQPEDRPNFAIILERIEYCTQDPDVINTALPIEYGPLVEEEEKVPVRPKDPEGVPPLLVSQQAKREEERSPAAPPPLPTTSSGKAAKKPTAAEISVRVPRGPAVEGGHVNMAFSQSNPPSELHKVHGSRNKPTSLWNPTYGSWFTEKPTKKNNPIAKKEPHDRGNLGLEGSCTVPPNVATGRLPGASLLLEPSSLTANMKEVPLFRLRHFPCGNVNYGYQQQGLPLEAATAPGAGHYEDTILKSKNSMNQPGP

| Structure (SMILES) | IC50 (ALK) [µM] | IC50 (CHK1) [µM] | IC50 (cMET) [µM] | IC50 (A549 cells) [µM] | IC50 (KB-S15 cells; Homo sapiens, KB-S15, paclitaxol resistant, MDR1 ↑, read-out: IC50, anti-proliferative activity) [µM] | Fold difference as compare to the IC50 in the respective parental cells (KB-S15 cells; KB-S15 vs KB) [fold] | phosphorylation of Histone H3 and expression of cyclin B1 (HONE-1 cells) | apoptosis: phosphatidylserine translocation, caspase-3/-7 activity, DNA fragmentation (KB cells) |
| --- | --- | --- | --- | --- | --- | --- | --- | --- |
| CN(C)Cc1ccccc1NC(=O)Nc1ccc(CCNc2ncnc3oc(-c4ccccc4)c(Cl)c23)cc1 [BPR1K653] | > 10 | > 10 | > 10 | 0.009 | 0.011 ± 0.004 | 1 | decreased | induced the caspase-3/-7 activity and DNA fragmentation |
| Cc1cc(Nc2cc(N3CCN(C)CC3)nc(Sc3ccc(NC(=O)C4CC4)cc3)n2)[nH]n1 [VX680] | – | – | – | – | – | – | – | only induced the translocation of the phosphatidylserine molecule, caspase-3/-7 activity and DNA fragmentation in KB cells |
